Data set [1] deals with Mitogen-activated protein kinase 14 (Homo sapiens, UniProt Q16539).
Description: Inhibitory concentration against alpha mitogen activated protein kinase p38 activity
Data set [2] in a line: Clearance after i.v. dosing at 1 mg/kg. The data set is classed as ADME, organism-based. More on the design: dose 1 mg/kg, route intravenous. Particulars: rat, in vivo, iv.
The species named for another data set is Homo sapiens. The experiment in a line: Concentration required to inhibit TNF-alpha production was determined in human whole blood. Format: functional.
A short description of data set [3]: Volume of distribution at steady state after oral dosing at 1 mg/kg. Format: ADME, organism-based. More on the design: dose 1 mg/kg, route oral. The settings on record: rat, in vivo.
The nature of data set [4]: Volume of distribution at steady state after i.v. dosing at 1 mg/kg. Format: ADME, organism-based. Set-up: dose 1 mg/kg, route intravenous. Particulars: rat, in vivo, iv, read-out: Distribution.
Data set [5] can be described thus: oral bioavailability after oral dosing at 1 mg/kg. Particulars: rat, in vivo, read-out: Bioavailabiility. Format: ADME, organism-based.
The nature of data set [6]: Clearance after oral dosing at 1 mg/kg. The data set is classed as ADME, organism-based. Set-up: dose 1 mg/kg, route oral. Particulars: rat, in vivo, read-out: Clearance.
Data set [7] is described as follows: oral bioavailability after p.o. dosing at 1 mg/kg. Particulars: rat, in vivo, read-out: Bioavailabiility.
Data set [8] can be described thus: Log D value at pH 7.4. The data set is classed as physicochemical. Particulars: buffer.
The nature of data set [9]: Protein binding was determined in rat plasma. Format: ADME, cell-free.
For data set [10], the target named is Epidermal growth factor receptor (Homo sapiens, UniProt P00533). Kind of data set: Inhibitory concentration against Epidermal growth factor receptor tyrosine kinase activity.

The text below walks through data of ChEMBL document CHEMBL1138000, “Novel, potent and selective anilinoquinazoline and anilinopyrimidine inhibitors of p38 MAP kinase” (Bioorg Med Chem Lett, 2004).

The structures appear in SMILES notation. Values after ≈ are worked out from the molar mass of the structure shown.

Broadly, the IC50 is the concentration that inhibits the measured activity by half. A higher IC50 goes with weaker potency. As a reminder, the clearance is a measure of how efficiently the substance is removed, as volume per time. A high value points to efficient removal. As a reminder, the logD is lipophilicity at a set pH, counting ionised and neutral species. A lower logD goes with lower lipophilicity. One may read the solubility as how much of the substance goes into solution per volume. Higher therefore signals a readily soluble substance.

Chain of Epidermal growth factor receptor (P00533 whole entry): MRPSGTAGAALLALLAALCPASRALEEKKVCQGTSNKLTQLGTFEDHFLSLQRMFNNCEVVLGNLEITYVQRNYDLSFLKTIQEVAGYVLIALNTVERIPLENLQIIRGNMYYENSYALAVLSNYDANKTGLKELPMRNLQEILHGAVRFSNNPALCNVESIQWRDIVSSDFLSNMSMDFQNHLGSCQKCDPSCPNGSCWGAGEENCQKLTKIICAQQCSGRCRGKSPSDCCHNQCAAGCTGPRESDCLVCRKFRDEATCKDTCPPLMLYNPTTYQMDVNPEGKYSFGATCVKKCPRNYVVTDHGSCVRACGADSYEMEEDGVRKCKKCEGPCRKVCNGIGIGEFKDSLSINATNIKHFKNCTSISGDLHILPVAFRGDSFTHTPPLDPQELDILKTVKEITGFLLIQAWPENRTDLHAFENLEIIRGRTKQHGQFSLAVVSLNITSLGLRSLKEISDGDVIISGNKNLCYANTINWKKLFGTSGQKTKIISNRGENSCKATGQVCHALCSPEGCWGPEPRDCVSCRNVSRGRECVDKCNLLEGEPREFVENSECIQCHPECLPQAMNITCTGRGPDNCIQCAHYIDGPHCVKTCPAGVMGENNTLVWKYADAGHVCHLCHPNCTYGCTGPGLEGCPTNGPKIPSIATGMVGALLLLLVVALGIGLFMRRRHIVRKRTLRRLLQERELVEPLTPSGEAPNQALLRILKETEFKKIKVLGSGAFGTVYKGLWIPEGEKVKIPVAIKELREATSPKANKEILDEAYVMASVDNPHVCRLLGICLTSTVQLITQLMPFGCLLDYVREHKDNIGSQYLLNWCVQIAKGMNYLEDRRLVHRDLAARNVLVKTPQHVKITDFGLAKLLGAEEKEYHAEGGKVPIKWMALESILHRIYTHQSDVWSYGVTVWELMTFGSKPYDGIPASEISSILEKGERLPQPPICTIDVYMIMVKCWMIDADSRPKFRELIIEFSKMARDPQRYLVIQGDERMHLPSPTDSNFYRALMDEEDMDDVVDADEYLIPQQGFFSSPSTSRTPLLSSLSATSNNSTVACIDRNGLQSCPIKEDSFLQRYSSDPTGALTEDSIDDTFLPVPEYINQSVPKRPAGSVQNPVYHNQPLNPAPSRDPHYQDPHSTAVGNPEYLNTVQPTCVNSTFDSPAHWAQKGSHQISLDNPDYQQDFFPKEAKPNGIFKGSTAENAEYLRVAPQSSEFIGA
Chain of Mitogen-activated protein kinase 14 (Q16539 whole entry): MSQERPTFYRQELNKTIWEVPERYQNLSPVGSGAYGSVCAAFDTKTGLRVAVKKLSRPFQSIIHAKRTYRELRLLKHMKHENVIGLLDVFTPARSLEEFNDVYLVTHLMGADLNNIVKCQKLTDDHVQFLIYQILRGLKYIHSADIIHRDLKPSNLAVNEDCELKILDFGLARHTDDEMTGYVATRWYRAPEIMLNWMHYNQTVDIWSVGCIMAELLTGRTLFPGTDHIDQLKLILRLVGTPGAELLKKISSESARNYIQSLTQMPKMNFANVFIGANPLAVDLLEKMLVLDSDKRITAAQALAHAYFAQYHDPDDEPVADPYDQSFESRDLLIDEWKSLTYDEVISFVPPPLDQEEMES

As for `CSc1nccc(Nc2cc(NC(=O)c3cc(F)cc(N4CCOCC4)c3)ccc2C)n1`, the half-inhibitory concentration (IC50) in [1] came out at 10 nM; in the data set filed under Homo sapiens, 3400 nM. The same molecule had a clearance in [2] of 25 mL/min/kg. For the same molecule, the Distribution in data set [3] came out at 0.8 L/kg. The Vd in [4] was found to be 0.8 L/kg. The bioavailability in [5] and in [7] was 26% each time. Besides, the CL/F in data set [6] was found to be 25 mL/min/kg.

As for `Cc1ccc(NC(=O)c2ccnc(N3CCOCC3)c2)cc1Nc1ccnc(OCC2CCCN(C)C2)n1` (configuration not stated), the values for the half-maximal inhibitory concentration (IC50) (in [1]; in the data set listed under Homo sapiens) were 30 nM and 1100 nM, respectively.

As to `Cc1ccc(NC(=O)c2ccnc(N3CCOCC3)c2)cc1Nc1ccnc(Cl)n1`, the IC50 was determined as 10 nM in data set [1] and 11000 nM in the data set listed under Homo sapiens.

As to `COc1cc2ncnc(Nc3cc(NC(=O)c4ccnc(N5CCOCC5)c4)ccc3C)c2cc1OCCN(C(C)C)C(C)C`, the pH-dependent lipophilicity (logD) in data set [8] was 3.5. The IC50 in [1] is 50 nM; in the data set filed under Homo sapiens it was 3500 nM. In “Aqueous solubility”, the solubility stood at 240 µM (≈ 147 µg/mL). In data set [9], this molecule displayed a Binding of 83%.

For the molecule `Cc1ccc(NC(=O)c2ccnc(N3CCOCC3)c2)cc1Nc1cc(NCCCN2CCCC2)ncn1`, the IC50 in [1] was 450 nM; in the data set filed under Homo sapiens, above 50000 nM.

For `C[S+]([O-])c1ccc(-c2nc(-c3ccc(F)cc3)c(-c3ccncc3)[nH]2)cc1` (configuration not stated) [SB-203580], in the data set filed under Homo sapiens, the IC50 came out at 2000 nM.

Consider `Cc1ccc(NC(=O)c2ccnc(N3CCOCC3)c2)cc1Nc1cc(N2CCCN(C)CC2)ncn1`, for which the half-maximal inhibitory concentration (IC50) in [1] is 1220 nM; in the data set listed under Homo sapiens, above 50000 nM.

Turning to `COc1cc2ncnc(Nc3cc(NC(=O)c4cccc(N(C)C)c4)ccc3Cl)c2cc1OC`, the figures for the concentration for half-maximal inhibition (IC50) (in [1]; in data set [10]; in the data set filed under Homo sapiens) were 40 nM, 29000 nM and above 50000 nM, respectively.

Regarding `COc1cc2ncnc(Nc3ccc(Cl)c(NC(=O)c4ccccc4)c3)c2cc1OC`, the half-maximal inhibitory concentration (IC50) in data set [1] was 610 nM; in [10], 2200 nM; in the data set listed under Homo sapiens it was above 50000 nM.

For `Cc1ccc(NC(=O)c2ccnc(N3CCOCC3)c2)cc1Nc1ccnc(NCCCN2CCOCC2)n1`, the half-maximal inhibitory concentration (IC50) in data set [1] is 90 nM; in the data set filed under Homo sapiens it was above 50000 nM.

As to `COc1cc2ncnc(Nc3cc(NC(=O)c4cccc(N5CCOCC5)c4)ccc3C)c2cc1OC`, the IC50 is 10 nM in data set [1], above 33000 nM in [10] and 16000 nM in the data set listed under Homo sapiens.

`Cc1ccc(NC(=O)c2ccnc(N3CCOCC3)c2)cc1Nc1ccnc(OC2CCN(C)CC2)n1`: the values for the IC50 (in data set [1]; in the data set listed under Homo sapiens) were 40 nM and 500 nM, respectively.

Regarding `COc1cc2ncnc(Nc3ccc(Cl)c(NC(=O)c4cccc(N(C)C)c4)c3)c2cc1OC`, the half-maximal inhibitory concentration (IC50) in data set [1] was 1690 nM; in data set [10], 1000 nM; in the data set filed under Homo sapiens it was above 50000 nM.

Regarding `COc1cc2ncnc(Nc3cccc(NC(=O)c4ccccc4)c3F)c2cc1OC`, the half-inhibitory concentration (IC50) in data set [1] was 690 nM; in data set [10], 2800 nM; in the data set listed under Homo sapiens, above 50000 nM.

With `COc1cc2ncnc(Nc3ccc(C)c(NC(=O)c4ccccc4)c3)c2cc1OC`, the IC50 in data set [1] is 2090 nM; in data set [10], 3200 nM; in the data set listed under Homo sapiens, above 50000 nM.

Consider `Cc1ccc(NC(=O)c2ccnc(N3CCOCC3)c2)cc1Nc1ccncn1`, for which the half-maximal inhibitory concentration (IC50) in [1] came to 210 nM; in the data set filed under Homo sapiens, 27000 nM.

On to `CCN(CC)CCCNc1cc(Nc2cc(NC(=O)c3ccnc(N4CCOCC4)c3)ccc2C)ncn1`, for which the figures for the half-inhibitory concentration (IC50) (in data set [1]; in the data set filed under Homo sapiens) were 280 nM and 23000 nM, respectively.

Consider `COc1cc2ncnc(Nc3cc(NC(=O)c4cccc(N(C)C)c4)ccc3C)c2cc1OC`, for which the values for the 50% inhibitory concentration (IC50) (in data set [1]; in [10]; in the data set filed under Homo sapiens) were 30 nM, above 33000 nM and 35000 nM, respectively.

Take `Cc1ccc(NC(=O)c2ccnc(N3CCOCC3)c2)cc1Nc1ccnc(N(C)C2CCN(C)CC2)n1`: the concentration for half-maximal inhibition (IC50) is 80 nM in data set [1] and 5300 nM in the data set listed under Homo sapiens.

As for `COc1cc2ncnc(Nc3cccc(NC(=O)c4ccccc4)c3)c2cc1OC`, the IC50 was 140 nM in [1], 5600 nM in data set [10] and above 50000 nM in the data set filed under Homo sapiens.

Take `COc1cc2ncnc(Nc3cc(NC(=O)c4ccccc4)c(Cl)cc3F)c2cc1OC`: the IC50 in data set [1] was 510 nM; in the data set filed under Homo sapiens, above 50000 nM.

For `COc1cc2ncnc(Nc3cc(NC(=O)c4ccnc(N5CCOCC5)c4)ccc3C)c2cc1OCCN1CCCCC1`, the IC50 worked out at 50 nM in [1] and 4600 nM in the data set listed under Homo sapiens.

In the case of `Cc1ccc(NC(=O)c2ccnc(N3CCOCC3)c2)cc1Nc1cc(Cl)ncn1`, the half-inhibitory concentration (IC50) was 240 nM in data set [1] and above 50000 nM in the data set listed under Homo sapiens.

In the case of `COc1cc2ncnc(Nc3cccc(Cl)c3)c2cc1OC` [TYRPHOSTIN AG-1478], the values for the IC50 (in [1]; in the data set listed under Homo sapiens) were 560 nM and above 50000 nM, respectively.

As to `Cc1ccc(NC(=O)c2ccnc(N3CCOCC3)c2)cc1Nc1ccnc(NCCCN2CCCC2)n1`, the IC50 in data set [1] came out at 50 nM; in the data set filed under Homo sapiens it was 16000 nM.

As to `Cc1ccc(NC(=O)c2ccnc(N3CCOCC3)c2)cc1Nc1ccnc(OCCCN(C)C)n1`, the IC50 is 30 nM in data set [1] and 3200 nM in the data set listed under Homo sapiens.

As for `Cc1ccc(NC(=O)c2ccnc(N3CCOCC3)c2)cc1Nc1ccnc(OCC(C)(C)CN(C)C)n1`, the IC50 worked out at 70 nM in data set [1] and 3700 nM in the data set filed under Homo sapiens.

For the molecule `CCCN1CCC(Oc2nccc(Nc3cc(NC(=O)c4cccc(N5CCOCC5)c4)ccc3C)n2)CC1`, the values for the 50% inhibitory concentration (IC50) (in [1]; in the data set filed under Homo sapiens) were 40 nM and 300 nM, respectively.

With `C=CCN(C)c1nccc(Nc2cc(NC(=O)c3ccnc(N4CCOCC4)c3)ccc2C)n1`, the figures for the concentration for half-maximal inhibition (IC50) (in data set [1]; in the data set filed under Homo sapiens) were 110 nM and above 50000 nM, respectively.

As for `COc1cc2ncnc(Nc3cc(NC(=O)c4ccnc(N5CCOCC5)c4)ccc3C)c2cc1OCCN1CCOCC1`, the half-inhibitory concentration (IC50) came out at 20 nM in data set [1] and 7800 nM in the data set listed under Homo sapiens.

Take `COc1cc2ncnc(Nc3cc(NC(=O)c4ccccc4)c(F)cc3F)c2cc1OC`: the values for the IC50 (in data set [1]; in [10]; in the data set listed under Homo sapiens) were 50 nM, 490 nM and above 50000 nM, respectively.

As to `CCCN1CCC(Oc2nccc(Nc3cc(NC(=O)c4ccnc(N5CCOCC5)c4)ccc3C)n2)CC1`, the IC50 in data set [1] was 50 nM; in the data set filed under Homo sapiens, 410 nM.

As for `COc1cc2ncnc(Nc3cccc(NC(=O)c4cccc(N(C)C)c4)c3)c2cc1OC`, the IC50 was 210 nM in [1], above 33000 nM in data set [10] and above 50000 nM in the data set filed under Homo sapiens.

`COc1cc2ncnc(Nc3cc(NC(=O)c4ccccc4)ccc3C)c2cc1OC`: the values for the half-maximal inhibitory concentration (IC50) (in data set [1]; in data set [10]; in the data set filed under Homo sapiens) were 70 nM, above 33000 nM and 21000 nM, respectively.

For the molecule `COc1cc2ncnc(Nc3cc(NC(=O)c4ccccc4)ccc3Cl)c2cc1OC`, the results for the IC50 (in [1]; in data set [10]; in the data set filed under Homo sapiens) were 80 nM, 11000 nM and above 50000 nM, respectively.

As to `COc1cc2ncnc(Nc3cc(NC(=O)c4ccnc(N5CCOCC5)c4)ccc3C)c2cc1OCCN(C)C`, the concentration for half-maximal inhibition (IC50) in data set [1] worked out at 30 nM; in the data set listed under Homo sapiens it was 6900 nM.
